Measured values published in patent US20140171445A1, “TREATMENT AND PREVENTION OF DISEASES MEDIATED BY MICROORGANISMS VIA DRUG-MEDIATED MANIPULATION OF THE EICOSANOID BALANCE” (priority 2011, published 2014).

Legend:
[1] = tested on: Mycobacterium tuberculosis; design: species or system C57BL6 mice; conditions: mouse, in vivo
[2] = tested on: Mycobacterium tuberculosis
[3] = tested on: tuberculosis; conditions: intranasal; Antonelli et al., J. Clin. Investigation 2010; cited from earlier work

| Compound | colony forming units (CFU) in lungs [1] | mice that survived past day 53 post-infection ([2]; M. tuberculosis-infected B6 mice treated with poly-ICLC alone, five mice) | mean weight as % of starting weight ([2]; M. tuberculosis-infected B6 mice, after 31 days, treated with intranasal poly-ICLC twice weekly) | effect on tuberculosis in mice [3] |
| --- | --- | --- | --- | --- |
| CC(c1cc2ccccc2s1)N(O)C(N)=O (centres unmarked) [zileuton] | approximately 7.6 log^10 CFU |  |  |  |
| poly-ICLC | approximately 8.9 log^10 CFU | None | approximately 74% | exacerbate tuberculosis |
